Like-named read-outs stand apart in the source and are kept apart here.
Key:
[1] = target: EGFR L858R (Homo sapiens, UniProt P00533, L858R); experiment: EGFR degradation, Total EGFR (L858R-specific) HTRF, NCI-H3255; format: cell-based; design: NCI-H3255 (harboring EGFR heterozygous L858R mutation); host or cells: NCI-H3255; conditions: NCI-H3255 cells, 6 hours, Total EGFR HTRF, read-out: H3255 EGFR DC50
From the text: NCI-H1975 (harboring EGFR heterozygous L858R-T790M mutations) and NCI-H3255 (harboring EGFR heterozygous L858R mutation) were purchased from ATCC and NCI, respectively. NCI-H1975+CS (harboring EGFR heterozygous L858R-T790M-C797S mutations) was generated using CRISPR technology to introduce the additional C797S mutation by Horizon Discovery. A431 (harboring EGFR wildtype) was purchased from ATCC. RPMI 1640 no-phenol red medium and fetal bovine serum (FBS) were purchased from Gibco (Grand Island, NY, USA). Cell culture flasks and 384-well microplates were acquired from VWR (Radnor, PA, USA). Phosphorylated (pY1068) EGFR and Total EGFR (using L858R-specific detection antibody and pan-EGFR antibody for EGFR mutant cell lines and EGFR wild-type cell lines, respectively) HTRF assay kits were purchased from Cisbio (Bedford, MA, USA).
Degradation of EGFR protein containing L858R mutation or wild-type was determined based on quantification of FRET signal using a Total EGFR (L858R-specific or pan-EGFR detecting) HTRF assay kit. Phospho-EGFR (pEGFR) inhibition was determined based on quantification of FRET signal using a pY1068 EGFR HTRF assay kit. In separate assay plates, test compounds were added to the 384-well plate from a top concentration of 10 μM with 11 points, half log titration in duplicates. For each assay, 12.5 uL of cells suspended in assay media (RPMI 1640 no-phenol red medium+10% FBS) at cell densities indicated for each cell line in Table 8 below were dispensed using a multi-channel pipette to 384-well low volume white HTRF microplates containing a duplicate concentration range of test compounds and DMSO controls. The plates were kept at 37° C. with 5% CO2 for 6 hours and then incubated with either phospho EGFR or Total EGFR HTRF detection antibodies according to the cell line and EGFR mutant being assayed. Cells treated in the absence of the test compound were the negative control. Positive control was set by wells containing all reagents but no cells. FRET signal was acquired on EnVision™ Multilabel Reader (PerkinElmer, Santa Clara, CA, USA). Compound concentration that achieves 50% degradation and inhibition was reported as DC50 and IC50, respectively.

[2] = target: T1, EGFR L858R-T790M (Homo sapiens, UniProt P00533, L858R/T790M); experiment: EGFR degradation, Total EGFR (L858R-specific) HTRF, NCI-H1975; format: cell-based; conditions: NCI-H1975 cells, 6 hours, Total EGFR HTRF, read-out: H1975 EGFR DC50
T1 construct: NCI-H1975 (harboring EGFR heterozygous L858R-T790M mutations); host or cells: NCI-H1975
T1 sequence (P00533 25-1210 T790M/L858R): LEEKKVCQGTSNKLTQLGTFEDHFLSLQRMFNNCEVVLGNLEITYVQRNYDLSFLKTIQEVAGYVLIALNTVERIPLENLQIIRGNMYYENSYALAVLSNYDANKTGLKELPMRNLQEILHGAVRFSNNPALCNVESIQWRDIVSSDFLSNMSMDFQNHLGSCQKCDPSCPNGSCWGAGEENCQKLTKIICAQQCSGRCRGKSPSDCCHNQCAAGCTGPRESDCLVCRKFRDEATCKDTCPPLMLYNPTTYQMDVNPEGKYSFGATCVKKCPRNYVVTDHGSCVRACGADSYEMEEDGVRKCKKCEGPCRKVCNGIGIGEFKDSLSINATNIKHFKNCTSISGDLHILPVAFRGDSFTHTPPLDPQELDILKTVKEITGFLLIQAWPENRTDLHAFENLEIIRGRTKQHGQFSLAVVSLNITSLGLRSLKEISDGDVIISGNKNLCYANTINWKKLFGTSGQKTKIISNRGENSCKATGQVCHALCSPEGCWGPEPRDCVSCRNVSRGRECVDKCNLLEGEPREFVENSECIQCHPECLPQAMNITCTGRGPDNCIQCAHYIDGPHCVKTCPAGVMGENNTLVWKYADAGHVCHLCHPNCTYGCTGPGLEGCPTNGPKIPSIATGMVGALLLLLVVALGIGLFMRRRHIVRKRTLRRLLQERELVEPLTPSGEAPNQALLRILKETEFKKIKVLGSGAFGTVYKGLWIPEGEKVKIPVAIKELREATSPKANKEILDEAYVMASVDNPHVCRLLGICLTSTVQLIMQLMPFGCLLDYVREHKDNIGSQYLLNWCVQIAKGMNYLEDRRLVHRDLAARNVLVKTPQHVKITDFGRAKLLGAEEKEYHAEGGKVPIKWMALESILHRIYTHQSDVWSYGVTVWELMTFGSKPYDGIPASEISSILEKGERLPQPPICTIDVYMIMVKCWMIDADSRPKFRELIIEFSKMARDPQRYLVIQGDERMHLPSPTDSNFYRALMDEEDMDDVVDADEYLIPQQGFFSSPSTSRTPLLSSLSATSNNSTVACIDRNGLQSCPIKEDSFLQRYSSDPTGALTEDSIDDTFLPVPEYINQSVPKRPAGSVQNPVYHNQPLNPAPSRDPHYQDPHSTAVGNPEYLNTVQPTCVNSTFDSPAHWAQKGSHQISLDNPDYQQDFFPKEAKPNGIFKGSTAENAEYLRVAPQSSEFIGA
In short: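 FRET signal from HTRF kits measured phospho-EGFR at pY1068 or total EGFR after 6 h treatment at 37 °C. Compounds ran as 11-point half-log dilutions from 10 μM in duplicate, in cells in phenol red-free RPMI with 10% FBS. Concentrations giving 50% inhibition or degradation were reported as IC50 or DC50.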

Sequence of EGFR L858R (P00533 25-1210 L858R): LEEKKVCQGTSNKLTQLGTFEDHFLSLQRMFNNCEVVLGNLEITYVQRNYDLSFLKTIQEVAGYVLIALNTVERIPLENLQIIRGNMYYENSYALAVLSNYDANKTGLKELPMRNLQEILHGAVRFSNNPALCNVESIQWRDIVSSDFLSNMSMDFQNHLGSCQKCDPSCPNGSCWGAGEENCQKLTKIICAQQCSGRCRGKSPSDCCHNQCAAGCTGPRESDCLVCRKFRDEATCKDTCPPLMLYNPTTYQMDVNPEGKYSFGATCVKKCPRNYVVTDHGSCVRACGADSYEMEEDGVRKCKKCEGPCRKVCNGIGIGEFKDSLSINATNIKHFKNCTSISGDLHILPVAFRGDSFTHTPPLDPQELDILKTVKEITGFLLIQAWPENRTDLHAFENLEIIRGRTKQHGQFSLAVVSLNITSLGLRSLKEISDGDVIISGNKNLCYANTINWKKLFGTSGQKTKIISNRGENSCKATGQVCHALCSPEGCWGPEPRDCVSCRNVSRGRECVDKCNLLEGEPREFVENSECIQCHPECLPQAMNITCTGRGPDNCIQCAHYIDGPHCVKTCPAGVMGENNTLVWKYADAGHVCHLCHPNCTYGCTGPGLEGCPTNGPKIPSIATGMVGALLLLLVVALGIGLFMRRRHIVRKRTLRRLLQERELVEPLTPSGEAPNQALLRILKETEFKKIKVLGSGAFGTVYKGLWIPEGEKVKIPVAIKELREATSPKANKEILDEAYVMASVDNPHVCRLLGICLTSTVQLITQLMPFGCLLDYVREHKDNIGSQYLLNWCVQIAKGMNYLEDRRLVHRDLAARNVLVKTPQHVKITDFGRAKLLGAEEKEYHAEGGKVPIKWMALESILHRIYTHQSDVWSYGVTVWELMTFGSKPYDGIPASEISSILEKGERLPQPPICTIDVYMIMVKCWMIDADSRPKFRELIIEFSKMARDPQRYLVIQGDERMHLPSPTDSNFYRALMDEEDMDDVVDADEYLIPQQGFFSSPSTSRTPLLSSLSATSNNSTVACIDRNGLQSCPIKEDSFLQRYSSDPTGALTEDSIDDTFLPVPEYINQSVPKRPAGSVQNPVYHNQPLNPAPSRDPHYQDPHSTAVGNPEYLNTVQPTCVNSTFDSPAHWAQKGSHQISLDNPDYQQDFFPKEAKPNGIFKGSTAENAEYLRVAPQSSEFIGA

Compound | DC50 ([1]; Table 9B) | DC50 ([2]; Table 9B) | DC50 ([1]; Table 9A) | DC50 ([2]; Table 9A)
O=C1CC[C@@H](Nc2ccc(C3CCN(C(=O)CCCN4CCN(c5ccc(-c6cc(F)c7c(c6)C(=O)N(C(C(=O)Nc6nccs6)c6ncn8c6CCC8)C7)cc5)CC4)CC3)cc2)C(=O)N1 (stereo in doubt) [Compound 176, 2-(6,7-dihydro-5H-pyrrolo[1,2-c]imidazol-1-yl)-2-(6-(4-(4-(4-(4-(4-((2,6-dioxopiperidin-3-yl)amino)phenyl)piperidin-1-yl)-4-oxobutyl)piperazin-1-yl)phenyl)-4-fluoro-1-oxoisoindolin-2-yl)-N-(thiazol-2-yl)acetamide] | < 50 nM | < 50 nM |  | 
O=C1CCC(Nc2ccc(C3CCN(CC(=O)N4CCN(Cc5ccc(-c6cc(F)c7c(c6)C(=O)N(C(C(=O)Nc6nccs6)c6ncn8c6CCC8)C7)cc5)CC4)CC3)cc2)C(=O)N1 (centres unmarked) [Compound 6, 2-(6,7-dihydro-5H-pyrrolo[1,2-c]imidazol-1-yl)-2-[6-[4-[[4-[2-[4-[4-[(2,6-dioxo-3-piperidyl)amino]phenyl]-1-piperidyl]acetyl]piperazin-1-yl]methyl]phenyl]-4-fluoro-1-oxo-isoindolin-2-yl]-N-thiazol-2-yl-acetamide] |  |  | < 50 nM | < 50 nM
O=C1CC[C@H](Nc2ccc(C3CCN(CC(=O)N4CCC(n5cc(-c6cc(F)c7c(c6)C(=O)N(C(C(=O)Nc6nccs6)c6ncn8c6CCC8)C7)cn5)CC4)CC3)cc2)C(=O)N1 (stereo partly drawn) [Compound 28, 2-(6,7-dihydro-5H-pyrrolo[1,2-c]imidazol-1-yl)-2-[6-[1-[1-[2-[4-[4-[[(3S)-2,6-dioxo-3-piperidyl]amino]phenyl]-1-piperidyl]acetyl]-4-piperidyl]pyrazol-4-yl]-4-fluoro-1-oxo-isoindolin-2-yl]-N-thiazol-2-yl-acetamide] |  |  | < 50 nM | < 50 nM
O=C1CC[C@H](Nc2ccc(C3CCN(CC(=O)N4CCC(c5cnn(-c6cc(F)c7c(c6)C(=O)N(C(C(=O)Nc6nccs6)c6ncn8c6CCC8)C7)c5)CC4)CC3)cc2)C(=O)N1 (stereo partly drawn) [Compound 29, 2-(6,7-dihydro-5H-pyrrolo[1,2-c]imidazol-1-yl)-2-[6-[4-[1-[2-[4-[4-[[(3S)-2,6-dioxo-3-piperidyl]amino]phenyl]-1-piperidyl]acetyl]-4-piperidyl]pyrazol-1-yl]-4-fluoro-1-oxo-isoindolin-2-yl]-N-thiazol-2-yl-acetamide] |  |  | < 50 nM | < 50 nM
O=C1CC[C@H](Nc2ccc(C3CCN(CC(=O)N4CCC(n5cc(-c6cc(F)c7c(c6)C(=O)N(C(C(=O)Nc6nccs6)c6ncn8c6CCC8)C7)nn5)CC4)CC3)cc2)C(=O)N1 (stereo partly drawn) [Compound 30, 2-(6,7-Dihydro-5H-pyrrolo[1,2-c]imidazol-1-yl)-2-(6-(1-(1-(2-(4-(4-(((S)-2,6-dioxopiperidin-3-yl)amino)phenyl)piperidin-1-yl)acetyl)piperidin-4-yl)-1H-1,2,3-triazol-4-yl)-4-fluoro-1-oxoisoindolin-2-yl)-N-(thiazol-2-yl)acetamide] |  |  | < 50 nM | < 50 nM
O=C1CCC(Nc2ccc(C3CCN(C(=O)C(=O)N4CCC(Oc5ccc(-c6cc(F)c7c(c6)C(=O)N(C(C(=O)Nc6nccs6)c6ncn8c6CCC8)C7)cc5)CC4)CC3)cc2)C(=O)N1 (centres unmarked) [Compound 40, 2-(6,7-dihydro-5H-pyrrolo[1,2-c]imidazol-1-yl)-2-[6-[4-[[1-[2-[4-[4-[(2,6-dioxo-3-piperidyl)amino]phenyl]-1-piperidyl]-2-oxo-acetyl]-4-piperidyl]oxy]phenyl]-4-fluoro-1-oxo-isoindolin-2-yl]-N-thiazol-2-yl-acetamide] |  |  | < 50 nM | < 50 nM
Cn1nc(N2CCC(=O)NC2=O)c2ccc(C3CCN(CC(=O)N4CCN(c5ccc(-c6cc(F)c7c(c6)C(=O)N(C(C(=O)Nc6nccs6)c6ncn8c6C[C@@H](F)C8)C7)cc5)CC4)CC3)cc21 (stereo partly drawn) [Compound 45, 2-[6-[4-[4-[2-[4-[3-(2,4-dioxohexahydropyrimidin-1-yl)-1-methyl-indazol-6-yl]-1-piperidyl]acetyl]piperazin-1-yl]phenyl]-4-fluoro-1-oxo-isoindolin-2-yl]-2-[(6R)-6-fluoro-6,7-dihydro-5H-pyrrolo[1,2-c]imidazol-1-yl]-N-thiazol-2-yl-acetamide] |  |  | < 50 nM | < 50 nM
Cn1nc(N2CCC(=O)NC2=O)c2ccc(C3CCN(CC(=O)N4CC5(C4)CN(c4ccc(-c6cc(F)c7c(c6)C(=O)N(C(C(=O)Nc6nccs6)c6ncn8c6CCC8)C7)cc4)C5)CC3)cc21 (centres unmarked) [Compound 49, 2-(6,7-dihydro-5H-pyrrolo[1,2-c]imidazol-1-yl)-2-[6-[4-[2-[2-[4-[3-(2,4-dioxohexahydropyrimidin-1-yl)-1-methyl-indazol-6-yl]-1-piperidyl]acetyl]-2,6-diazaspiro[3.3]heptan-6-yl]phenyl]-4-fluoro-1-oxo-isoindolin-2-yl]-N-thiazol-2-yl-acetamide] |  |  | < 50 nM | < 50 nM
O=C1CC[C@H](Nc2ccc(C3CCN(CC(=O)N4CC5(C4)CN(c4ccc(-c6cc(F)c7c(c6)C(=O)N(C(C(=O)Nc6ccccn6)c6ncn8c6CCC8)C7)cc4)C5)CC3)c(F)c2)C(=O)N1 (stereo partly drawn) [Compound 53, 2-(6,7-dihydro-5H-pyrrolo[1,2-c]imidazol-1-yl)-2-[6-[4-[2-[2-[4-[4-[[(3S)-2,6-dioxo-3-piperidyl]amino]-2-fluoro-phenyl]-1-piperidyl]acetyl]-2,6-diazaspiro[3.3]heptan-6-yl]phenyl]-4-fluoro-1-oxo-isoindolin-2-yl]-N-(2-pyridyl)acetamide] |  |  | < 50 nM | 50 to 150 nM

The next lines start with the values.

DC50 ([1]; Table 9B) | DC50 ([2]; Table 9B) | DC50 ([1]; Table 9A) | DC50 ([2]; Table 9A) | Compound
 |  | < 50 nM | < 50 nM | O=C1CC[C@H](Nc2ccc(C3CCN(CC(=O)N4CCC(c5ccc(-c6cc(F)c7c(c6)C(=O)N(C(C(=O)Nc6nccs6)c6ncn8c6CCC8)C7)cc5)CC4)CC3)cc2)C(=O)N1 (stereo partly drawn) [Compound 22, 2-(6,7-dihydro-5H-pyrrolo[1,2-c]imidazol-1-yl)-2-(6-(4-(1-(2-(4-(4-(((S)-2,6-dioxopiperidin-3-yl)amino)phenyl)piperidin-1-yl)acetyl)piperidin-4-yl)phenyl)-4-fluoro-1-oxoisoindolin-2-yl)-N-(thiazol-2-yl)acetamide]
 |  | < 50 nM | < 50 nM | O=C1CC[C@H](Nc2ccc(C3CCN(CC(=O)N4CCN(c5ccc(-c6cc(F)c7c(c6)C(=O)N(C(C(=O)Nc6nccs6)c6ncn8c6CCC8)C7)cn5)CC4)CC3)c(F)c2)C(=O)N1 (some centres unmarked) [Compound 27]
 |  | 50 to 150 nM | 50 to 150 nM | O=C1CC[C@H](Nc2ccc(C3CCN(CC(=O)N4CC5(CCN(c6ccc(-c7cc(F)c8c(c7)C(=O)N(C(C(=O)Nc7nccs7)c7ncn9c7CCC9)C8)cc6)CC5)C4)CC3)c(F)c2)C(=O)N1 (stereo partly drawn) [Compound 46, 2-(6,7-dihydro-5H-pyrrolo[1,2-c]imidazol-1-yl)-2-(6-(4-(2-(2-(4-(4-(((S)-2,6-dioxopiperidin-3-yl)amino)-2-fluorophenyl)piperidin-1-yl)acetyl)-2,7-diazaspiro[3.5]nonan-7-yl)phenyl)-4-fluoro-1-oxoisoindolin-2-yl)-N-(thiazol-2-yl)acetamide]
 |  | < 50 nM | 50 to 150 nM | O=C1CC[C@H](Nc2ccc(C3CCN(CC(=O)N4CCC(Cc5ccc(-c6cc(F)c7c(c6)C(=O)N(C(C(=O)Nc6nccs6)c6ncn8c6CCC8)C7)cc5)CC4)CC3)c(F)c2)C(=O)N1 (stereo partly drawn) [Compound 60, 2-(6,7-dihydro-5H-pyrrolo[1,2-c]imidazol-1-yl)-2-[6-[4-[[1-[2-[4-[4-[[(3S)-2,6-dioxo-3-piperidyl]amino]-2-fluoro-phenyl]-1-piperidyl]acetyl]-4-piperidyl]methyl]phenyl]-4-fluoro-1-oxo-isoindolin-2-yl]-N-thiazol-2-yl-acetamide]

— patent publication US20240158418A1 (C4 Therapeutics, Inc., priority 2021, published 2024)
